Data published in ChEMBL document CHEMBL5338781, “Fragment-Based Approaches to Identify RNA Binders” (J Med Chem, 2023).
≈ marks a conversion by molar mass, not a printed value.

Key:
microRNA 21 [1] = experiment: Binding affinity to pre-miR-21 (unknown origin); type: nucleic-acid assay
[2] = Binding affinity to HIV-1 RNA by SPR analysis; design: species or system Human immunodeficiency virus 1
[3] = Binding affinity to influenza A virus RNA by one-dimensional NMR spectroscopy method
Influenza A virus = experiment: Antiviral activity against Influenza A virus assessed as inhibition of virus-induced cytopathic effect; type: functional, organism-based
Influenza B virus = experiment: Antiviral activity against Influenza B virus assessed as inhibition of virus-induced cytopathic effect; type: functional, organism-based
[4] = Binding affinity to Escherichia coli ThiM TPP riboswitch
RNA = experiment: Binding affinity to RNA (unknown origin) by fluorescence based analysis; type: nucleic-acid assay
Bacterial 70S ribosome = experiment: Inhibition of Mycobacterium smegmatis ribosomes assessed as inhibition of translation activity; type: subcellular, Mycolicibacterium smegmatis
[5] = Binding affinity to pri-miR-96 (unknown origin)
[6] = Inhibition of pri-miR-96 biogenesis in human MDA-MB-231 cells; type: cell-based
[7] = Binding affinity to bacteria RNA by HTS method
microRNA 21 [8] = experiment: Inhibition of pre-miR-21 biogenesis in human MDA-MB-231 cells; type: cell-based
microRNA 21 [9] = experiment: Inhibition of pre-miR-21 biogenesis in human Triple-negative breast cancer cell; type: cell-based
[10] = Binding affinity to pre-miR-372 (unknown origin)
[11] = Inhibition of pre-miR-372 biogenesis in human AGS cells; type: cell-based
Sulfhydryl oxidase 1 = biological target: T1, Sulfhydryl oxidase 1 (Homo sapiens, UniProt O00391); experiment: Binding affinity to QSOX1 in human MDA-MB-231 cells; type: cell-based
T1 sequence (O00391 whole entry): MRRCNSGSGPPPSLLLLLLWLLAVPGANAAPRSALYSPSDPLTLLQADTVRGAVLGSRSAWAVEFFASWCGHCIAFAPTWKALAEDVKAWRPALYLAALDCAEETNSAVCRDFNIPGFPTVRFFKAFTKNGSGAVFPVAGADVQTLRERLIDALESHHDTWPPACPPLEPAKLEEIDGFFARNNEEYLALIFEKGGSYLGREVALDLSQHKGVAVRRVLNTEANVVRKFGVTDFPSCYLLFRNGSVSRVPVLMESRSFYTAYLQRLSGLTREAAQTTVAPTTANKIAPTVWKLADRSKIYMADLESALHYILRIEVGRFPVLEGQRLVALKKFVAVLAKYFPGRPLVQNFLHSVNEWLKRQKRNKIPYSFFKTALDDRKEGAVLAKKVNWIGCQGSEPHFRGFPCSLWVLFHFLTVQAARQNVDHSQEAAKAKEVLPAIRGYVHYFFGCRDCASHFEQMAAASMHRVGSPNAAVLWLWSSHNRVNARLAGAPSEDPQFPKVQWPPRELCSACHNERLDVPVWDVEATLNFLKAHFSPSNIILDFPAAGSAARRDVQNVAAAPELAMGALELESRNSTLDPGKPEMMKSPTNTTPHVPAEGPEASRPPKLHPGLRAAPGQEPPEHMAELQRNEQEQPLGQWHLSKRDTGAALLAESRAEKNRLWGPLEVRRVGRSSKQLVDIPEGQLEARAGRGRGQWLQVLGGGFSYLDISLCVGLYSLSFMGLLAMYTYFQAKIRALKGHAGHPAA

[12] = Binding affinity to HIV1 TAR RNA assessed as inhibition of Tat-mediated transactivation; type: functional, Human immunodeficiency virus 1
Escherichia coli [13] = experiment: Antibacterial activity against Escherichia coli assessed as bacterial growth inhibition; type: functional
Staphylococcus aureus = experiment: Antibacterial activity against Staphylococcus aureus assessed as bacterial growth inhibition; type: functional
Escherichia coli [14] = experiment: Binding affinity to Escherichia coli ThiM TPP riboswitch assessed as inhibition of conformational switching
[15] = biological target: T2, Sulfhydryl oxidase 1 (Homo sapiens) (UniProt O00391); experiment: Inhibition of QSOX1 in human MDA-MB-231 cells at 20 uM relative to control; type: cell-based
T2 sequence (whole entry): T1 sequence (O00391 whole entry)

Compound: CN1CCN(c2ccc(-c3ccc4nc(-c5ccc(OCCCC(=O)CCCN=[N+]=[N-])cc5)[nH]c4c3)cc2)CC1
- Kd (microRNA 21 [1]): 18 µM

Compound: COc1ccc2nc3cc(F)ccc3c(Nc3ccc(C(=O)Nc4ccncc4)cc3)c2c1
- Kd [2]: 1 µM

Compound: COc1cc2nc(N3CCNCC3)nc(N)c2cc1OC [AMINODIMETHOXYQUINAZOLINYLPIPERAZINE]
- Kd [3]: 50 µM
- EC50 (Influenza A virus): 71 µM
- EC50 (Influenza B virus): 71 µM

Compound: Nc1ccc2nccnc2c1
- Kd [4]: 22 µM

Compound: Cc1nc(N)nc(N)n1
- Kd (RNA): 110 µM

Compound: CCN1CCN(Cc2csc(-c3ccccc3)n2)CC1
- IC50 (Bacterial 70S ribosome): 2.8 µM

Compound: CCCN(CC(=O)N(CCC)CC(=O)N(CC(N)=O)Cc1cn(CCCNC(=O)CCCOc2c(C(C)(C)C)cc(-c3nc4cc(N5CCN(C)CC5)ccc4[nH]3)cc2C(C)(C)C)nn1)C(=O)CCCOc1cccc(-c2nc3ccc(-c4nc5ccc(N6CCN(C)CC6)cc5[nH]4)cc3[nH]2)c1
- Kd [5]: 0.085 µM
- IC50 [6]: ~0.05 µM

Compound: NCC[C@@H](NC(=O)c1ccc(-c2cccc(NC(=O)c3ccc4nc(O)c(O)nc4c3)c2)o1)C(=O)N1CCNCC1
- Kd [7]: 6.5 µM

Compound: Cc1nc(CN2CCN(Cc3csc(-c4ccccc4)n3)CC2)cs1
- IC50 (Bacterial 70S ribosome): 9.1 µM

Compound: c1cc(N2CCNCC2)ccn1
- Kd [4]: 620 µM

Compound: Nc1nc2[nH]nc(N)n2n1
- Kd (RNA): 370 µM

Compound: CN1CCN(c2ccc(-c3ccc4nc(-c5ccc(OCCCC(=O)N6CCN(c7nncc8sccc78)CC6)cc5)[nH]c4c3)cc2)CC1
- IC50 (microRNA 21 [8]): ~1 µM
- Kd (microRNA 21 [1]): 0.352 µM
- IC50 (microRNA 21 [9]): ~1 µM

Compound: O=c1[nH]cccc1-c1nc(-c2cccc(Cl)c2)no1
- Kd [10]: 0.3 µM
- IC50 [11]: ~1 µM

Compound: CCOC(=O)C1=C(Nc2ccccc2)S/C(=C\c2ccc(OCCOCCOCCOCCNC(=O)CCC(=O)N(C)[C@H]3CC[C@@H](c4ccc(Cl)c(Cl)c4)c4ccccc43)c(O)c2)C1=O
- Kd (Sulfhydryl oxidase 1): 16 µM

Compound: COc1ccc2nc3cc(F)ccc3c(N)c2c1
- Kd [2]: 59 µM

Compound: NC1=Nc2cccc3cccc(c23)N1
- IC50 [12]: 50 µM

Compound: CN1CCN(c2ccc3nc(-c4cc(C(C)(C)C)c(OCCCC(=O)NCCCN=[N+]=[N-])c(C(C)(C)C)c4)[nH]c3c2)CC1
- Kd [5]: 1.5 µM

Compound: CCc1nc2cc3ccccc3cc2cc1C(=O)N(C)[C@@H](CCn1cc(C[C@@H](C(=O)N2CCC[C@H]2C(=O)N(C)[C@@H](Cc2ccccc2)C(=O)NCCCN)N(C)C(=O)c2cc3cc4ccccc4cc3nc2CC)nn1)C(=O)N1CCC[C@H]1C(=O)N(C)[C@@H](Cc1ccccc1)C(=O)NCCCN
- Kd [2]: 0.016 µM

Compound: Cc1ncc(CN=[N+]=[N-])cn1
- Kd [4]: 49 µM

Compound: CNCc1cc2cccnc2s1
- Kd [4]: 60 µM

Compound: CN1CCN(c2ccc3nc(-c4ccc5[nH]c(-c6cccc(OCCCC(=O)NCCN=[N+]=[N-])c6)nc5c4)[nH]c3c2)CC1
- Kd [5]: 1.3 µM
- IC50 [6]: ~0.02 µM

Compound: CCc1nc2ccccc2cc1C(=O)N[C@@H](CSSC[C@H](NC(=O)c1cc2ccccc2nc1CC)C(=O)N1CCC[C@H]1C(=O)N[C@@H](Cc1ccccc1)C(=O)NCCCCCC(N)=O)C(=O)N1CCC[C@H]1C(=O)N[C@@H](Cc1ccccc1)C(=O)NCCCCCC(N)=O
- Kd [2]: 4.1 µM

Compound: Nc1csc(Br)n1
- Kd (RNA): 650 µM

Compound: CN(C)CCCOc1ccc(C(NC(=O)c2ccc(-c3cccc(NC(=O)c4ccc(-c5ccccc5)cc4)c3)o2)C(=O)N2CCNCC2)cc1 (centres undefined)
- MIC (Escherichia coli [13]): 6 µM (≈ 4.11 µg/mL)
- MIC (Staphylococcus aureus): 3 µM (≈ 2.06 µg/mL)

Compound: Nc1ccc2nc(N)nc(N)c2c1 [QUINAZOLINE-2,4,6-TRIAMINE]
- IC50 [12]: 40 µM

Compound: c1cc(N2CCNCC2)c(NCc2ccc3nccnc3c2)cn1
- Kd [4]: 0.068 µM
- K (Escherichia coli [14]): 68 µM

Compound: Nc1ccnc(N)n1 [DIAMINOPYRIMIDINE]
- Kd (RNA): 80 µM

Compound: OCc1ccc2nsnc2c1
- Kd [4]: 56 µM

Compound: C#CCCC1(CCC(=O)N(C)[C@H]2CC[C@@H](c3ccc(Cl)c(Cl)c3)c3ccccc32)N=N1
- inhibition [15]: 15%

Compound: Nc1ccc2ccnc(N)c2c1
- IC50 [12]: 150 µM
